The values below are quoted from earlier work in patent US8329187B2, “Compositions of spores of non pathogenic bacteria” (Neuroscienze Pharmaness S.C. A.R.L., priority 2009, dated 2012).

The subject of the series is gastrointestinal transit. The following applies: shown in example 6 of EP 1,602,658.

Consider `Cc1c(C(=O)c2cccc3ccccc23)c2cccc3c2n1[C@H](CN1CCOCC1)CO3` [WIN 55.212-2], for which the “effect on gastrointestinal transit (constipating activity)” value was “slackens the gastrointestinal transit”.
